Measurements reported in patent US9656988B2 (Pharmacyclics LLC, priority 2013, dated 2017).
pIC50: −log10 of the molar value. Where two headings read alike, the source gives them in different places.

Target: BTK (Homo sapiens (Human), UniProt Q06187)
Test: Btk in vitro inhibitory activity (one of Method A TR-FRET, Method B electrophoretic mobility shift, Method C radiometric filter binding)
Format: biochemical
[1] = determined using one of the methods of Example 355a, 355b and 355c, read-out: BTK IC50

Sequence of BTK (Q06187 whole entry): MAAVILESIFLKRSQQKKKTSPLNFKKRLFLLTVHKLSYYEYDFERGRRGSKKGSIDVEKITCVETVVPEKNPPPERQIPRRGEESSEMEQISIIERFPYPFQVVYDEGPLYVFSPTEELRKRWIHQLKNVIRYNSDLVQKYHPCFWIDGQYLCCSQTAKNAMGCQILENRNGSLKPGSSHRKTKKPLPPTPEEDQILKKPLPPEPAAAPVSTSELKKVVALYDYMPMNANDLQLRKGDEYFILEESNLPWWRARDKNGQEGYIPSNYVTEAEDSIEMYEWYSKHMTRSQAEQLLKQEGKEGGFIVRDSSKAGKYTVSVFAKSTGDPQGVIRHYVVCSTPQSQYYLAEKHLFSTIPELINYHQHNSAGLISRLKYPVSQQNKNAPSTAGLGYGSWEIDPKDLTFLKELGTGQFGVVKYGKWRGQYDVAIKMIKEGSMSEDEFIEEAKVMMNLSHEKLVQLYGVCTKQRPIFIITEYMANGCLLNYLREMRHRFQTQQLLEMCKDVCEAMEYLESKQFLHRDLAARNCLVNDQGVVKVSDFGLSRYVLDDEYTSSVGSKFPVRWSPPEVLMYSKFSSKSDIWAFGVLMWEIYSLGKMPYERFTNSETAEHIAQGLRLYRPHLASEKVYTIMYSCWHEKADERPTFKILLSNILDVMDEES

Compound	pIC50 [1]	pIC50 (read-out: Btk (IC50))	pIC50 (Btk (IC50))
CN(C)C(=O)N1CC[C@@H]2[C@H]1CCCN2c1cnc(C(N)=O)c(Nc2ccc(C3CCN(C4CCCC4)CC3)cc2)n1 (racemic) [Example 287, (3aR,7aR)-4-(5-carbamoyl-6-(4-(1-cyclopentylpiperidin-4-yl)phenylamino)pyrazin-2-yl)-N,N-dimethyloctahydro-1H-pyrrolo[3,2-b]pyridine-1-carboxamide]	7.00 to 8.00	7.00 to 8.00	
NC(=O)c1ncc(N2CCC[C@@H]3[C@H]2CCN3C(=O)C2CC2)nc1Nc1ccc(C2CCN(C3CCCC3)CC2)cc1 (racemic) [Example 288, 3-(4-(1-cyclopentylpiperidin-4-yl)phenylamino)-5-((3aR,7aR)-1-(cyclopropanecarbonyl)dihydro-1H-pyrrolo[3,2-b]pyridin-4(2H,5H,6H,7H,7aH)-yl)pyrazine-2-carboxamide]	7.00 to 8.00	7.00 to 8.00	
NC(=O)c1ncc(N2CC[C@H]3CCN[C@H]3C2)nc1Nc1ccc(C2CCN(C3CCCC3)CC2)cc1 (racemic) [Example 291]	6.00 to 7.00		
CN(C)C(=O)N1CC[C@@H]2CCN(c3cnc(C(N)=O)c(Nc4ccc(C5CCN(C6CCCC6)CC5)cc4)n3)C[C@@H]21 (racemic) [Example 292, (3aS,7aR)-6-(5-carbamoyl-6-(4-(1-cyclopentylpiperidin-4-yl)phenylamino)pyrazin-2-yl)-N,N-dimethyloctahydro-1H-pyrrolo[2,3-c]pyridine-1-carboxamide]	7.00 to 8.00		7.00 to 8.00
NC(=O)c1ncc(N2CC[C@H]3CCN(C(=O)C4CC4)[C@H]3C2)nc1Nc1ccc(C2CCN(C3CCCC3)CC2)cc1 (racemic) [Example 293, 3-(4-(1-cyclopentylpiperidin-4-yl)phenylamino)-5-((3aS,7aR)-1-(cyclopropanecarbonyl)tetrahydro-1H-pyrrolo[2,3-c]pyridin-6(2H,7H,7aH)-yl)pyrazine-2-carboxamide]	7.00 to 8.00	7.00 to 8.00	
CC1[C@H](NC(=O)C2CC2)CCCN1c1cnc(C(N)=O)c(Nc2ccc(C3CCN(C4CCCC4)CC3)cc2)n1 (stereo in doubt) [Example 349, (R)-3-(4-(1-cyclopentylpiperidin-4-yl)phenylamino)-5-(3-(cyclopropanecarboxamido)-2-methylpiperidin-1-yl)pyrazine-2-carboxamide]	> 8.00		
CN(C(=O)c1ccc(C(C)(C)C)cc1)[C@@H]1CCCN(c2nnc(C(N)=O)c(Nc3ccc(C(=O)N4CCOCC4)cc3)n2)C1 [Example 3, (R)-3-(3-(4-tert-butyl-N-methylbenzamido)piperidin-1-yl)-5-(4-(morpholine-4-carbonyl)phenylamino)-1,2,4-triazine-6-carboxamide]	7.00 to 8.00		
Cc1ccc(C(=O)N[C@@H]2CCCN(c3nnc(C(N)=O)c(Nc4ccc(C(=O)N5CCOCC5)cc4)n3)C2)cc1 [Example 4, (R)-3-(3-(4-methylbenzamido)piperidin-1-yl)-5-(4-(morpholine-4-carbonyl)phenylamino)-1,2,4-triazine-6-carboxamide]	> 8.00		
NC(=O)c1nnc(N2CCC[C@@H](NC(=O)c3ccccc3)C2)nc1Nc1ccc(C(=O)N2CCOCC2)cc1 [Example 5, (R)-3-(3-benzamidopiperidin-1-yl)-5-(4-(morpholine-4-carbonyl)phenylamino)-1,2,4-triazine-6-carboxamide]	> 8.00		
NC(=O)c1nnc(N2CCC[C@@H](NC(=O)c3ccc(C(F)(F)F)cc3)C2)nc1Nc1ccc(C(=O)N2CCOCC2)cc1 [Example 6, (R)-5-(4-(morpholine-4-carbonyl)phenylamino)-3-(3-(4-(trifluoromethyl)benzamido)piperidin-1-yl)-1,2,4-triazine-6-carboxamide]	> 8.00		
N#Cc1ccc(C(=O)N[C@@H]2CCCN(c3nnc(C(N)=O)c(Nc4ccc(C(=O)N5CCOCC5)cc4)n3)C2)cc1 [Example 7, (R)-3-(3-(4-cyanobenzamido)piperidin-1-yl)-5-(4-(morpholine-4-carbonyl)phenylamino)-1,2,4-triazine-6-carboxamide]	7.00 to 8.00		
NC(=O)c1nnc(N2CCC[C@@H](NC(=O)c3ccc(Cl)cc3)C2)nc1Nc1ccc(C(=O)N2CCOCC2)cc1 [Example 8, (R)-3-(3-(4-chlorobenzamido)piperidin-1-yl)-5-(4-(morpholine-4-carbonyl)phenylamino)-1,2,4-triazine-6-carboxamide]	> 8.00		
NC(=O)c1nnc(N2CCC[C@@H](NC(=O)c3ccc(F)cc3)C2)nc1Nc1ccc(C(=O)N2CCOCC2)cc1 [Example 9, (R)-3-(3-(4-fluorobenzamido)piperidin-1-yl)-5-(4-(morpholine-4-carbonyl)phenylamino)-1,2,4-triazine-6-carboxamide]	> 8.00		
COc1ccc(C(=O)N[C@@H]2CCCN(c3nnc(C(N)=O)c(Nc4ccc(C(=O)N5CCOCC5)cc4)n3)C2)cc1 [Example 10, (R)-3-(3-(4-methoxybenzamido)piperidin-1-yl)-5-(4-(morpholine-4-carbonyl)phenylamino)-1,2,4-triazine-6-carboxamide]	> 8.00		
NC(=O)c1nnc(N2CCC[C@@H](NC(=O)c3ccc(C4CC4)cc3)C2)nc1Nc1ccc(C(=O)N2CCOCC2)cc1 [Example 11, (R)-3-(3-(4-cyclopropylbenzamido)piperidin-1-yl)-5-(4-(morpholine-4-carbonyl)phenylamino)-1,2,4-triazine-6-carboxamide]	> 8.00		
NC(=O)c1nnc(N2CCC[C@@H](NC(=O)c3ccccn3)C2)nc1Nc1ccc(C(=O)N2CCOCC2)cc1 [Example 12, (R)-5-(4-(morpholine-4-carbonyl)phenylamino)-3-(3-(picolinamido)piperidin-1-yl)-1,2,4-triazine-6-carboxamide]	> 8.00		
NC(=O)c1nnc(N2CCC[C@@H](NC(=O)c3cccnc3)C2)nc1Nc1ccc(C(=O)N2CCOCC2)cc1 [Example 13, (R)-5-(4-(morpholine-4-carbonyl)phenylamino)-3-(3-(nicotinamido)piperidin-1-yl)-1,2,4-triazine-6-carboxamide]	7.00 to 8.00		
NC(=O)c1nnc(N2CCC[C@@H](NC(=O)c3ccncc3)C2)nc1Nc1ccc(C(=O)N2CCOCC2)cc1 [Example 14, (R)-3-(3-(isonicotinamido)piperidin-1-yl)-5-(4-(morpholine-4-carbonyl)phenylamino)-1,2,4-triazine-6-carboxamide]	> 8.00		
NC(=O)c1nnc(N2CCC[C@@H](NC(=O)c3ncccn3)C2)nc1Nc1ccc(C(=O)N2CCOCC2)cc1 [Example 15, (R)-5-(4-(morpholine-4-carbonyl)phenylamino)-3-(3-(pyrimidine-2-carboxamido)piperidin-1-yl)-1,2,4-triazine-6-carboxamide]	7.00 to 8.00		
NC(=O)c1nnc(N2CCC[C@@H](NC(=O)c3nccs3)C2)nc1Nc1ccc(C(=O)N2CCOCC2)cc1 [Example 16, (R)—N-(1-(6-carbamoyl-5-(4-(morpholine-4-carbonyl)phenylamino)-1,2,4-triazin-3-yl)piperidin-3-yl)thiazole-2-carboxamide]	> 8.00		
NC(=O)c1nnc(N2CCC[C@@H](NC(=O)c3ccc(Cl)s3)C2)nc1Nc1ccc(C(=O)N2CCOCC2)cc1 [Example 17, (R)-3-(3-(5-chlorothiophene-2-carboxamido)piperidin-1-yl)-5-(4-(morpholine-4-carbonyl)phenylamino)-1,2,4-triazine-6-carboxamide]	> 8.00		
NC(=O)c1nnc(N2CCC[C@@H](NC(=O)c3ccn4ccnc4c3)C2)nc1Nc1ccc(C(=O)N2CCOCC2)cc1 [Example 20, (R)—N-(1-(6-carbamoyl-5-(4-(morpholine-4-carbonyl)phenylamino)-1,2,4-triazin-3-yl)piperidin-3-yl)imidazo[1,2-a]pyridine-7-carboxamide]	7.00 to 8.00		
CC#CC(=O)N[C@@H]1CCCN(c2nnc(C(N)=O)c(Nc3ccc(C(=O)N4CCOCC4)cc3)n2)C1 [Example 23, (R)-3-(3-but-2-ynamidopiperidin-1-yl)-5-(4-(morpholine-4-carbonyl)phenylamino)-1,2,4-triazine-6-carboxamide]	7.00 to 8.00		
CC(C)C(=O)N[C@@H]1CCCN(c2nnc(C(N)=O)c(Nc3ccc(C(=O)N4CCOCC4)cc3)n2)C1 [Example 24, (R)-3-(3-isobutyramidopiperidin-1-yl)-5-(4-(morpholine-4-carbonyl)phenylamino)-1,2,4-triazine-6-carboxamide]	7.00 to 8.00		
NC(=O)c1nnc(N2CCC[C@@H](NC(=O)C3CC3)C2)nc1Nc1ccc(C(=O)N2CCOCC2)cc1 [Example 25, (R)-3-(3-(cyclopropanecarboxamido)piperidin-1-yl)-5-(4-(morpholine-4-carbonyl)phenylamino)-1,2,4-triazine-6-carboxamide]	7.00 to 8.00		
N#CC1(C(=O)N[C@@H]2CCCN(c3nnc(C(N)=O)c(Nc4ccc(C(=O)N5CCOCC5)cc4)n3)C2)CC1 [Example 28, (R)-3-(3-(1-cyanocyclopropanecarboxamido)piperidin-1-yl)-5-(4-(morpholine-4-carbonyl)phenylamino)-1,2,4-triazine-6-carboxamide]	7.00 to 8.00		
NC(=O)c1nnc(N2CCC[C@@H](NC(=O)C3CCCC3)C2)nc1Nc1ccc(C(=O)N2CCOCC2)cc1 [Example 29, (R)-3-(3-(cyclopentanecarboxamido)piperidin-1-yl)-5-(4-(morpholine-4-carbonyl)phenylamino)-1,2,4-triazine-6-carboxamide]	7.00 to 8.00		
NC(=O)c1nnc(N2CCC[C@@H](NC(=O)C3CCOCC3)C2)nc1Nc1ccc(C(=O)N2CCOCC2)cc1 [Example 30, (R)-5-(4-(morpholine-4-carbonyl)phenylamino)-3-(3-(tetrahydro-2H-pyran-4-carboxamido)piperidin-1-yl)-1,2,4-triazine-6-carboxamide]	7.00 to 8.00		
CN1CCC(C(=O)N[C@@H]2CCCN(c3nnc(C(N)=O)c(Nc4ccc(C(=O)N5CCOCC5)cc4)n3)C2)CC1 [Example 31, (R)-3-(3-(1-methylpiperidine-4-carboxamido)piperidin-1-yl)-5-(4-(morpholine-4-carbonyl)phenylamino)-1,2,4-triazine-6-carboxamide]	7.00 to 8.00		
